The results in this text go back to patent publication US20220017877A1, “BILIRUBIN OXIDASE ACTIVITY IMPROVING METHOD, AND BILIRUBIN OXIDASE PRODUCT” (OZEKI CORPORATION, priority 2018, published 2022).

The target of the test is T1, recombinant BOD (bilirubin oxidase) derived from Myrothecium verrucaria MT-1 (Albifimbria verrucaria, UniProt Q12737).
T1 construct: made in house; host or cells: Aspergillus sp
T1 sequence (Q12737 39-572): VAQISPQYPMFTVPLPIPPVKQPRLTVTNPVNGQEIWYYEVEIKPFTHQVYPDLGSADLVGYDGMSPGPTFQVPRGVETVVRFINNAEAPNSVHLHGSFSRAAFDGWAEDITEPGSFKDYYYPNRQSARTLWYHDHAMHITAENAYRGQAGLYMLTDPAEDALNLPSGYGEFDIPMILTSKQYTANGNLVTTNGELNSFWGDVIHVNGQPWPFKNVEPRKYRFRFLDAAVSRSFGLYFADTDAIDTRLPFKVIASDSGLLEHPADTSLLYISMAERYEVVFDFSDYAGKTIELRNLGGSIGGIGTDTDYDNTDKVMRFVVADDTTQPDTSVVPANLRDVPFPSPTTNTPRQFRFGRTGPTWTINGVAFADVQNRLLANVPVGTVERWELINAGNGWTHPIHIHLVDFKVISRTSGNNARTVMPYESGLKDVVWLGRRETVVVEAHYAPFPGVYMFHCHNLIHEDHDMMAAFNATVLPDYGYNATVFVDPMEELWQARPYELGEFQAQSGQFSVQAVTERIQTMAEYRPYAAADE
The experiment in a line: BOD activity after leaving the BOD solution with an activity improving agent or comparative substance at 30° C. in a deoxygenated atmosphere (Test Example 1). The test is classed as biochemical. Conditions: relative to Day 0, additive concentration as in Table 1; for Activity (%) Day 47: left 47 days at 30° C. The protocol: A BOD solution, which contains: a BOD; and the present activity improving agent or a comparative substance, was left in an environment at a temperature of 30° C. in a deoxygenated atmosphere for a certain period of time. After the BOD solution was left as above, improvement of the BOD activity by the present activity improving method was evaluated by measurement of the BOD activity.
In Test Example 1, a BOD gene derived from a Myrothecium verrucaria MT-1 (GenBank accession number: D12579.1) was introduced into an Aspergillus sp., and then a recombinant BOD (hereinafter, also referred to simply as “BOD”) expressed in the Aspergillus sp. was purified by using a well-known technique and then used as the BOD. The BOD gene derived from the Myrothecium verrucaria MT-1 was codon-optimized in accordance with a gene sequence of the Aspergillus sp., and then introduced into the Aspergillus sp. Further, the BOD thus purified was dissolved in a 50 mM glycine-KOH (pH 8.5) buffer so that the concentration of the BOD became 1.0 mg/mL. Then, a resultant solution was used as a BOD enzyme solution.
The enzymatic activity of the BOD was measured as follows. To 1780 μL of a 50 mM potassium phosphate buffer (pH 6.5), 200 μL of a 20 mM ABTS substrate solution was added, so that a mixed solution (1980 μL) was prepared. This mixed solution was incubated for 1 min at 37° C. Thereafter, 20 μL of a solution containing the BOD (specifically, a BOD solution for evaluation, which will be described later) was added to the mixed solution, and a resultant mixed solution (2 mL) was incubated at 37° C. While the mixed solution was incubated, the absorbance of the mixed solution at a wavelength of 436 nm was measured immediately after that addition of the BOD solution for evaluation (at 0 seconds) and thereafter every 20 seconds. On the basis of (i) the absorbance of the mixed solution at a wavelength of 436 nm immediately after the addition of the BOD solution for evaluation and (ii) the absorbance of the mixed solution at a wavelength of 436 nm after a lapse of 1 minute from the addition of the BOD solution for evaluation, calculation was carried out for obtaining an increase rate per minute of the absorbance of the mixed solution at a wavelength of 436 nm after the addition of the BOD solution for evaluation. The BOD activity (unit) in the BOD solution for evaluation was calculated from the increase rate. In the present specification, the amount of enzyme for oxidizing 1 μmol of ABTS per minute was defined as one unit.
A specific test method of Test Example 1 is as follows. To a BOD enzyme solution containing a BOD, one of the above-described present activity improving agents was added, so that a BOD solution (which is the BOD solution according to an embodiment of the present invention) was prepared. Further, one of the above-described comparative substances was added to the BOD enzyme solution, so that another BOD solution was prepared. In addition, still another BOD solution was prepared by adding, to the BOD enzyme solution, distilled water in place of the activity improving agent or the comparative substance, so that a control (denoted as Without additive in Tables 1 to 3) was prepared. The final concentration of the activity improving agent or the comparative substance in each of the above BOD solutions was shown in “mM” or “percentage (%)” (amount (g) of the activity improving agent or the comparative substance relative to 100 mL of the BOD solution) in Table 1.
Thereafter, one of these BOD solutions and a deoxygenating agent (Anaero Pack manufactured by Mitsubishi Gas Chemical Company, Inc.) were included in one container. Then, the container was sealed, so that a BOD container was prepared. The BOD container was left in an environment at a temperature of 30° C. in a deoxygenated atmosphere for 47 days (Table 2) or 14 days (Table 3). […]

As for `O=C1O[C@H]([C@@H](O)CO)C(O)=C1O` [L-ascorbic acid], the “Activity (%) Day 47” value came out at 151%.

As for `O=c1[nH]c(=O)c2[nH]c(=O)[nH]c2[nH]1` [Uric acid, uric acid], the “Activity (%) Day 47” value turned out to be 155%. Besides, the “Activity (%) Day 14” value (left 14 days at 30° C.) came out at 156%.
